27 compounds from patent US11446287B2, “Compounds and methods for EP300 or CBP modulation and indications therefor” (Opna Immuno-Oncology SA, priority 2019, dated 2022) can be followed below.

pIC50: −log10 of the molar value.

This assay concerns the target T1, Recombinant human EP300 containing the bromodomain (EP300-BD (1040-1161)) (Homo sapiens, UniProt Q09472).
T1 construct: Recombinant human EP300 bromodomain (EP300-BD (1040-1161)); made in house; host or cells: E. coli BL21-CodonPlus (DE3), modified pET vector
T1 sequence (Q09472 1040-1161): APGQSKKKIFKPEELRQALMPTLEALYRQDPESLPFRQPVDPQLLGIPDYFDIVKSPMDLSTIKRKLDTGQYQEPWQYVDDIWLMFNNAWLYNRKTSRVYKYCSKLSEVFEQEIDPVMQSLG
The experiment in a line: EP300 Alphascreen binding assay. A digest of the protocol: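 Displacement of a biotinylated acetyl-K56 histone H3 peptide from the N-His bromodomain construct (1040-1161) measured by AlphaScreen proximity, beads at 7.5 μg/ml final, read 60 min after addition. Protein, peptide and compound first incubated 1 h at room temperature, pH 7.5 HEPES buffer; IC50 by four-parameter logistic fit.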
Background: Bead proximity is the source of the signal in Alpha formats.
What is called pIC50 is the negative decadic logarithm of the IC50, by convention in mol/L. For `Cc1noc(C)c1-c1cnc2c(c1)c(-c1ccc(C(=O)O)cc1OC(C)C)c(C)n2C(C1CC1)C1CC1` [P-0342, 4-(1-(dicyclopropylmethyl)-5-(3,5-dimethylisoxazol-4-yl)-2-methyl-1H-pyrrolo[2,3-b]pyridin-3-yl)-3-isopropoxybenzoic acid], the pIC50 is 6.00 to 10.00.

Consider `Cc1noc(C)c1-c1cnc2c(c1)c(-c1ccc(C(=O)O)cc1OC(F)(F)F)c(C)n2C(C1CC1)C1CC1` [P-0343, 4-(1-(dicyclopropylmethyl)-5-(3,5-dimethylisoxazol-4-yl)-2-methyl-1H-pyrrolo[2,3-b]pyridin-3-yl)-3-(trifluoromethoxy)benzoic acid], for which the pIC50 is 6.00 to 10.00. On to `Cc1noc(C)c1-c1ccc2c(c1)c(-c1ccc(C(=O)O)cc1OC(F)(F)F)cn2C(C1CC1)C1CC1` [P-0344, 4-(1-(dicyclopropylmethyl)-5-(3,5-dimethylisoxazol-4-yl)-1H-indol-3-yl)-3-(trifluoromethoxy)benzoic acid], for which the negative logarithm of the IC50 (pIC50) is 6.00 to 10.00. For `Cc1noc(C)c1-c1cnc2c(c1)c(-c1ccc(C(=O)O)cc1OC(F)(F)F)c(C)n2-c1ncccc1C#N` [P-0345, 4-(1-(3-cyanopyridin-2-yl)-5-(3,5-dimethylisoxazol-4-yl)-2-methyl-1H-pyrrolo[2,3-b]pyridin-3-yl)-3-(trifluoromethoxy)benzoic acid] the value was 6.00 to 10.00; for `Cc1noc(C)c1-c1cnc2c(c1)c(-c1c(Cl)cc(C(=O)O)cc1OC(F)(F)F)cn2[C@H]1CCOC1` [P-0346, (S)-3-chloro-4-(5-(3,5-dimethylisoxazol-4-yl)-1-(tetrahydrofuran-3-yl)-1H-pyrrolo[2,3-b]pyridin-3-yl)-5-(trifluoromethoxy)benzoic acid], 6.00 to 10.00. As for `Cc1noc(C)c1-c1cnc2c(c1)c(-c1ccc(C(=O)O)cc1OC1CCC1)cn2-c1cnc(N2CCC2)nc1` [P-0347, 4-(1-(2-(azetidin-1-yl)pyrimidin-5-yl)-5-(3,5-dimethylisoxazol-4-yl)-1H-pyrrolo[2,3-b]pyridin-3-yl)-3-cyclobutoxybenzoic acid], the figure is 6.00 to 10.00. As to `Cc1noc(C)c1-c1cnc2c(c1)c(-c1c(F)cc(C(=O)O)cc1OCC(F)F)cn2-c1cnc(N2CCC2)nc1` [P-0348, 4-(1-(2-(azetidin-1-yl)pyrimidin-5-yl)-5-(3,5-dimethylisoxazol-4-yl)-1H-pyrrolo[2,3-b]pyridin-3-yl)-3-(2,2-difluoroethoxy)-5-fluorobenzoic acid], the negative-log IC50 (pIC50) was 6.00 to 10.00. In the case of `Cc1nn(C(F)F)cc1-n1cc(-c2ccc(C(=O)O)cc2OCC(F)F)c2cc(-c3c(C)noc3C)cnc21` [P-0349, 3-(2,2-difluoroethoxy)-4-(1-(1-(difluoromethyl)-3-methyl-1H-pyrazol-4-yl)-5-(3,5-dimethylisoxazol-4-yl)-1H-pyrrolo[2,3-b]pyridin-3-yl)benzoic acid], the pIC50 is 6.00 to 10.00. For `Cc1noc(C)c1-c1cnc2c(c1)c(-c1ccc(C(=O)O)cc1OC1CCC1)cn2[C@H]1CCOC1` [P-0350, (S)-3-cyclobutoxy-4-(5-(3,5-dimethylisoxazol-4-yl)-1-(tetrahydrofuran-3-yl)-1H-pyrrolo[2,3-b]pyridin-3-yl)benzoic acid] the value was 6.00 to 10.00; for `Cc1nn(C(F)F)cc1-n1cc(-c2ccc(C(=O)O)cc2OC2CCC2)c2cc(-c3c(C)noc3C)cnc21` [P-0351, 3-cyclobutoxy-4-(1-(1-(difluoromethyl)-3-methyl-1H-pyrazol-4-yl)-5-(3,5-dimethylisoxazol-4-yl)-1H-pyrrolo[2,3-b]pyridin-3-yl)benzoic acid], 6.00 to 10.00; for `Cc1noc(C)c1-c1cnc2c(c1)c(-c1c(Cl)cc(C(=O)O)cc1OCC(F)F)cn2-c1cnn(C(F)F)c1C` [P-0352, 3-chloro-5-(2,2-difluoroethoxy)-4-(1-(1-(difluoromethyl)-5-methyl-1H-pyrazol-4-yl)-5-(3,5-dimethylisoxazol-4-yl)-1H-pyrrolo[2,3-b]pyridin-3-yl)benzoic acid], 6.00 to 10.00.

As for `Cc1noc(C)c1-c1cnc2c(c1)c(-c1ccc(C(=O)O)cc1OC1CCC1)cn2-c1cnn(C(F)F)c1C` [P-0353, 3-cyclobutoxy-4-(1-(1-(difluoromethyl)-5-methyl-1H-pyrazol-4-yl)-5-(3,5-dimethylisoxazol-4-yl)-1H-pyrrolo[2,3-b]pyridin-3-yl)benzoic acid], the pIC50 was 6.00 to 10.00. For `Cc1noc(C)c1-c1cnc2c(c1)c(-c1ccc(C(=O)O)cc1OC(C)C)cn2-c1cnn(C(F)F)c1C` [P-0354, 4-(1-(1-(difluoromethyl)-5-methyl-1H-pyrazol-4-yl)-5-(3,5-dimethylisoxazol-4-yl)-1H-pyrrolo[2,3-b]pyridin-3-yl)-3-isopropoxybenzoic acid] the value was 6.00 to 10.00; for `Cc1noc(C)c1-c1cnc2c(c1)c(-c1c(Cl)cc(C(=O)O)cc1OC(F)(F)F)cn2C1CCOCC1` [P-0355, 3-chloro-4-(5-(3,5-dimethylisoxazol-4-yl)-1-(tetrahydro-2H-pyran-4-yl)-1H-pyrrolo[2,3-b]pyridin-3-yl)-5-(trifluoromethoxy)benzoic acid], 6.00 to 10.00; for `Cc1noc(C)c1-c1cnc2c(c1)c(-c1c(Cl)cc(C(=O)O)cc1OC1CCC1)cn2C(C1CC1)C1CC1` [P-0356, 3-chloro-5-cyclobutoxy-4-(1-(dicyclopropylmethyl)-5-(3,5-dimethylisoxazol-4-yl)-1H-pyrrolo[2,3-b]pyridin-3-yl)benzoic acid], 6.00 to 10.00. As for `Cc1noc(C)c1-c1cnc2c(c1)c(-c1ccc(C(=O)O)cc1OC(C)C)cn2C1CCOCC1` [P-0357, 4-(5-(3,5-dimethylisoxazol-4-yl)-1-(tetrahydro-2H-pyran-4-yl)-1H-pyrrolo[2,3-b]pyridin-3-yl)-3-isopropoxybenzoic acid], the figure is 6.00 to 10.00; as for `Cc1noc(C)c1-c1cnc2c(c1)c(-c1c(Cl)cc(C(=O)O)cc1OC1CCC1)cn2C1CCOCC1` [P-0358, 3-chloro-5-cyclobutoxy-4-(5-(3,5-dimethylisoxazol-4-yl)-1-(tetrahydro-2H-pyran-4-yl)-1H-pyrrolo[2,3-b]pyridin-3-yl)benzoic acid], 6.00 to 10.00.

`Cc1noc(C)c1-c1cnc2c(c1)c(-c1c(Cl)cc(C(=O)O)cc1OCC(F)F)cn2C1CCOCC1` [P-0359, 3-chloro-5-(2,2-difluoroethoxy)-4-(5-(3,5-dimethylisoxazol-4-yl)-1-(tetrahydro-2H-pyran-4-yl)-1H-pyrrolo[2,3-b]pyridin-3-yl)benzoic acid]: the pIC50 was 6.00 to 10.00.

Regarding `CCOc1cc(C(=O)O)c(F)cc1-c1cn([C@H]2CCOC2)c2ncc(-c3c(C)noc3C)cc12` [P-0360, (S)-4-(5-(3,5-dimethylisoxazol-4-yl)-1-(tetrahydrofuran-3-yl)-1H-pyrrolo[2,3-b]pyridin-3-yl)-5-ethoxy-2-fluorobenzoic acid], the pIC50 is 6.00 to 10.00. As for `Cc1noc(C)c1-c1cnc2c(c1)c(-c1c(Cl)cc(C(=O)O)cc1OC1CCC1)cn2[C@H]1CCOC1` [P-0361, (S)-3-chloro-5-cyclobutoxy-4-(5-(3,5-dimethylisoxazol-4-yl)-1-(tetrahydrofuran-3-yl)-1H-pyrrolo[2,3-b]pyridin-3-yl)benzoic acid], the figure is 6.00 to 10.00; as for `COc1cc(C(=O)O)ncc1-c1cn(C2CCOCC2)c2ncc(-c3c(C)noc3C)cc12` [P-0362, 5-(5-(3,5-dimethylisoxazol-4-yl)-1-(tetrahydro-2H-pyran-4-yl)-1H-pyrrolo[2,3-b]pyridin-3-yl)-4-methoxypicolinic acid], 6.00 to 10.00; as for `Cc1noc(C)c1-c1cnc2c(c1)c(-c1c(Cl)cc(C(=O)O)cc1OC1CC1)cn2C(C1CC1)C1CC1` [P-0363, 3-chloro-5-cyclopropoxy-4-(1-(dicyclopropylmethyl)-5-(3,5-dimethylisoxazol-4-yl)-1H-pyrrolo[2,3-b]pyridin-3-yl)benzoic acid], 6.00 to 10.00. For `Cc1noc(C)c1-c1cnc2c(c1)c(-c1ccc(C(=O)O)cc1OC(F)(F)F)cn2CC1(C#N)CCC1` [P-0364, 4-(1-((1-cyanocyclobutyl)methyl)-5-(3,5-dimethylisoxazol-4-yl)-1H-pyrrolo[2,3-b]pyridin-3-yl)-3-(trifluoromethoxy)benzoic acid] the value was 6.00 to 10.00; for `Cc1nn(CC(C)(C)O)cc1-n1cc(-c2ccc(C(=O)O)cc2OC(F)(F)F)c2cc(-c3c(C)noc3C)cnc21` [P-0365, 4-(5-(3,5-dimethylisoxazol-4-yl)-1-(1-(2-hydroxy-2-methylpropyl)-3-methyl-1H-pyrazol-4-yl)-1H-pyrrolo[2,3-b]pyridin-3-yl)-3-(trifluoromethoxy)benzoic acid], 6.00 to 10.00. On to `Cc1nn(CC(=O)N(C)C)cc1-n1cc(-c2ccc(C(=O)O)cc2OC(F)(F)F)c2cc(-c3c(C)noc3C)cnc21` [P-0366, 4-(1-(1-(2-(dimethylamino)-2-oxoethyl)-3-methyl-1H-pyrazol-4-yl)-5-(3,5-dimethylisoxazol-4-yl)-1H-pyrrolo[2,3-b]pyridin-3-yl)-3-(trifluoromethoxy)benzoic acid], for which the pIC50 was 6.00 to 10.00. As for `Cc1cc(C(=O)O)cc(OCC(F)F)c1-c1cn(C2CCOCC2)c2ncc(-c3c(C)noc3C)cc12` [P-0367, 3-(2,2-difluoroethoxy)-4-(5-(3,5-dimethylisoxazol-4-yl)-1-(tetrahydro-2H-pyran-4-yl)-1H-pyrrolo[2,3-b]pyridin-3-yl)-5-methylbenzoic acid], the figure is 6.00 to 10.00; as for `COc1nc(C(=O)O)ccc1-c1cn(C2CCOCC2)c2ncc(-c3c(C)noc3C)cc12` [P-0368, 5-(5-(3,5-dimethylisoxazol-4-yl)-1-(tetrahydro-2H-pyran-4-yl)-1H-pyrrolo[2,3-b]pyridin-3-yl)-6-methoxypicolinic acid], 6.00 to 10.00.
